In patent publication US8642613B2, “Treatment for leukemia and idiopathic aplastic anemia” (Sphingomonas Research Partners, L.P., priority 2008, dated 2014):

System: acute lymphocytic leukemia (ALL), Philadelphia chromosome positive, with bone marrow failure
Experiment: Rifampicin treatment of a single patient with relapsed acute lymphocytic leukemia and end stage bone marrow failure
Assay type: in vivo, human
Method: The single leukemia patient studied, and reported here, was a person who presented with acute lymphocytic leukemia (ALL), Philadelphia chromosome positive, who was converted to remission with a stem cell transplant from a matching sibling. Within one year, the leukemia reverted to an active form, and they were treated with all anti-leukemic agents known, and these included several experimental agents from MD Anderson Hospital in Houston.
They developed diabetes associated with steroids, and right maxillary sinus infection with a species of Mucorales. They underwent debridement of their sinus, with removal of bone and tissue up to the floor of the […] orbit. The sense of smell had been lost during the mucor infection. Their condition worsened in the Houston hospital. They developed bone marrow failure, and was transferred by air ambulance in a bed to their home in the Chicago area with instructions for terminal hospice care. They were bedridden, unable to sit up, and appeared moribund.
The laboratory findings at that time included:
The present inventor, who is a physician, is a cousin of the patient. After informed consent, which included a description of the experience of the inventor, the patient was started on rifampicin (rifampin) 600 mg daily not within 2½ hours of meals. This treatment was not part of any protocol, but was a private request to the inventor.

[1] = single ALL patient, rifampicin 600 mg daily
[2] = single ALL patient, rifampicin 600 mg daily, time after start of treatment

Substance: Rifampicin
- white cell levels (mature leukocytes and lymphocytes) (approximately 5 weeks after treatment began, rifampicin 600 mg daily): continued at normal levels
- platelet counts over time (FIG. 3) (patient presenting with acute lymphocytic leukemia treated with rifampicin): increase in platelet counts over time
- white cell counts over time (FIG. 4) (same patient and time course as FIG. 3): increase in white cell counts
- clinical condition (strength, sitting, standing, short walks) [1]: marked clinical improvement
- platelet drop leading to temporary discontinuation (suspected platelet agglutination) [1]: transient drop in platelets
- time until patient began to show bone marrow recovery [2]: ≤ 2 weeks
- time until significant parameters of bone marrow remission had developed [2]: ≤ 6 weeks
- platelets, level reached on treatment (single ALL patient, rifampicin 600 mg daily, 11K before treatment): 48 K
